From patent US8846951B2 (AbbVie Inc., priority 2009, dated 2014)
Like-named read-outs stand apart in the source and are kept apart here.

Assays:
5HT2C receptors = target: T1, 5HT2C receptors (Homo sapiens, UniProt P28335); test: Human 5-HT2C functional high throughput screening assay in CHO-K1 cells (calcium flux); assay type: cell-based; parameters: expressed in transfected cells; host or cells: CHO-K1 cells; settings: for EC50: CHO-K1 cells, calcium flux; for Emax: CHO-K1, 5-HT2C, maximum functional response as percentage relative to the effect of serotonin
T1 sequence (P28335 33-458): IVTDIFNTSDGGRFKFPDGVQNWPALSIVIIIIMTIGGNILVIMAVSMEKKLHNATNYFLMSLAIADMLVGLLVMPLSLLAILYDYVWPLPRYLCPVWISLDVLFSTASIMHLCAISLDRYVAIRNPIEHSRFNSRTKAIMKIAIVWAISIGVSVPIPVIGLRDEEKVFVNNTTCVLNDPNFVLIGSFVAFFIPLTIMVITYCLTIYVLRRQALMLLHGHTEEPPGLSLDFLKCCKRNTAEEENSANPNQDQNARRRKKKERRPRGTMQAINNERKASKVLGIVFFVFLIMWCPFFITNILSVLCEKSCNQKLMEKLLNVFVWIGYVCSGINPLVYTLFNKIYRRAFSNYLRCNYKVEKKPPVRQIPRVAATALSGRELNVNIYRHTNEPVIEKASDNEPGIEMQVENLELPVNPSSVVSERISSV
How it was run: (§1)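 Serum-starved CHO-K1 cells carrying the receptor; Ca4 dye, 60 min RT. Test compound added after a 10 s baseline, fluorescence followed for 3 min. EC50 from 4-parameter fit; Emax given as % of serotonin effect.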

5HT2B receptors = target: T2, 5HT2B receptors (Homo sapiens, UniProt P41595); test: Human 5-HT2B functional high throughput screening assay in CHO-K1 cells (calcium flux); assay type: cell-based; settings: for EC50: CHO-K1 cells, calcium flux
T2 construct: expressed in transfected cells; host or cells: CHO-K1 cells
T2 sequence (P41595 whole entry): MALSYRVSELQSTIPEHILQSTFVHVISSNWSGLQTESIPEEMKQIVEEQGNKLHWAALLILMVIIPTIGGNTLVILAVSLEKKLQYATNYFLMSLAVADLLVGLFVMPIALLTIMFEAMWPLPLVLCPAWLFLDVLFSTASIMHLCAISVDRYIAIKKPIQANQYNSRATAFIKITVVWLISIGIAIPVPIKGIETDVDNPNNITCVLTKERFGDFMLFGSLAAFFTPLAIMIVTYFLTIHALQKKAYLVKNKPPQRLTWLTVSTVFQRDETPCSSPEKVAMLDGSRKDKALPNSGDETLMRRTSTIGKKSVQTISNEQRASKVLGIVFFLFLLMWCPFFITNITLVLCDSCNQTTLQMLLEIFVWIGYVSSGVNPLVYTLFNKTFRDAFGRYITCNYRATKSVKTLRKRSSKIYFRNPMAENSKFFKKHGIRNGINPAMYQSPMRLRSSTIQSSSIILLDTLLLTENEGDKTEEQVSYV
How it was run: as §1

[1] = 5-HT2C agonist activity, read-out: EC50
[2] = 5-HT2B agonist activity, read-out: EC50
[3] = 5-HT2B, maximum functional response as percentage relative to the effect of serotonin

| Structure (SMILES) | EC50 (5HT2C receptors; [1]) [nM] | Emax (5HT2C receptors; read-out: Emax) [%] | EC50 (5HT2B receptors; [2]) [nM] | Emax (5HT2B receptors; [3]) | Emax (5HT2B receptors; CHO-K1, 5-HT2B, maximum functional response as percentage relative to the effect of serotonin, read-out: Emax) [%] | Emax (5HT2C receptors) [%] | EC50 (5HT2C receptors; EC50, 5-HT2C agonist activity) [nM] | EC50 (5HT2B receptors; EC50, 5-HT2B agonist activity) [nM] | Emax (5HT2B receptors; CHO-K1) [%] |
| --- | --- | --- | --- | --- | --- | --- | --- | --- | --- |
| CN1C[C@H]2CN(C)C(=O)c3cc(-c4cccc(C(C)(C)O)c4)ccc3[C@@H]2C1 (relative stereo) [Example 194, Trans-8-(3-(2-hydroxypropan-2-yl)phenyl)-2,5-dimethyl-1,2,3,3a,4,5-hexahydrobenzo[e]pyrrolo[3,4-c]azepin-6(10bH)-one] | 20 | > 120 | > 10000 | inactive |  |  |  |  |  |
| CN1C[C@H]2CCOc3ncccc3[C@@H]2C1 (relative stereo) [Example 268, Trans-2-methyl-2,3,3a,4,5,10b-hexahydro-1H-pyrrolo[3′,4′:4,5]oxepino[2,3-b]pyridine] | 7000 |  | > 10000 | inactive |  | 70 |  |  |  |
| O=C1NC[C@@H]2CNC[C@H]2c2ccc(-c3ccncc3)cc21 (relative stereo) [Example 177, Trans-8-(pyridin-4-yl)-1,2,3,3a,4,5-hexahydrobenzo[e]pyrrolo[3,4-c]azepin-6(10bH)-one] |  |  |  | inactive |  | > 120 | 100 | > 10000 |  |
| O=S(=O)(c1ccc(OC(F)(F)F)cc1)N1Cc2cccnc2[C@@H]2CNC[C@H]2C1 (relative stereo) [Example 349, Trans-6-{[4-(trifluoromethoxy)phenyl]sulfonyl}-5,6,7,7a,8,9,10,10a-octahydropyrido[3,2-c]pyrrolo[3,4-e]azepine] | 200 | 90 | > 10000 | inactive |  |  |  |  |  |
| Brc1ccc2c(c1)[C@@H]1CNC[C@H]1CCN2 (relative stereo) [Example 396, Trans-9-bromo-1,2,3,3a,4,5,6,10b-octahydropyrrolo[3,4-d][1]benzazepine] |  |  |  |  |  | 90 | 30 | 6 | 60 |
| CC(C)Cc1ccc2c(c1)C(=O)NC[C@@H]1CN(C)C[C@@H]21 (relative stereo) [Example 244, Trans-8-isobutyl-2-methyl-1,2,3,3a,4,5-hexahydrobenzo[e]pyrrolo[3,4-c]azepin-6(10bH)-one] |  |  |  | inactive |  | 80 | 100 | > 10000 |  |
| N#Cc1cccc(-c2ccc3c(c2)C(=O)NC[C@@H]2CNC[C@@H]32)c1 (relative stereo) [Example 239, 3-(Trans-6-oxo-1,2,3,3a,4,5,6,10b-octahydrobenzo[c]pyrrolo[3,4-e]azepin-8-yl)benzonitrile] | 0.8 | > 120 | 2000 |  | 20 |  |  |  |  |
| COc1ccc(F)c(-c2ccc3c(c2)C(=O)NC[C@@H]2CN(C)C[C@@H]32)c1 (relative stereo) [Example 323, Trans-8-(2-fluoro-5-methoxyphenyl)-2-methyl-2,3,3a,4,5,10b-hexahydropyrrolo[3,4-d][2]benzazepin-6(1H)-one] | 9 | 90 | > 10000 | inactive |  |  |  |  |  |
| CN1C[C@@H]2CNC(=O)c3cc(-c4ccc5c(c4)C(=O)CC5)ccc3[C@H]2C1 [Example 306, (3aS,10bS)-2-Methyl-8-(3-oxo-2,3-dihydro-1H-inden-5-yl)-2,3,3a,4,5,10b-hexahydropyrrolo[3,4-d][2]benzazepin-6(1H)-one] | 10 | 90 | > 10000 | inactive |  |  |  |  |  |
| COc1cc(C)ccc1-c1ccc2c(c1)C(=O)NC[C@@H]1CN(C)C[C@@H]21 (relative stereo) [Example 302, Trans-8-(2-methoxy-4-methylphenyl)-2-methyl-2,3,3a,4,5,10b-hexahydropyrrolo[3,4-d][2]benzazepin-6(1H)-one] | 70 | 95 | > 10000 | inactive |  |  |  |  |  |
| Clc1cccc2c1NCC[C@@H]1CNC[C@@H]21 (relative stereo) [Example 392, Trans-7-chloro-1,2,3,3a,4,5,6,10b-octahydropyrrolo[3,4-d][1]benzazepine] |  |  |  |  |  | 100 | 0.7 | 40 | 65 |
| FC(F)(F)Oc1cccc2c1OCC[C@H]1CNC[C@H]21 (relative stereo) [Example 285, Trans-7-(trifluoromethoxy)-2,3,3a,4,5,10b-hexahydro-1H-[1]benzoxepino[4,5-c]pyrrole] |  |  |  |  |  | 100 | < 0.1 | 9 | 90 |
| CC(=O)c1cccc(-c2ccc3c(c2)C(=O)NC[C@@H]2CNC[C@@H]32)c1.Cl (relative stereo) [Example 236, Trans-8-(3-acetylphenyl)-1,2,3,3a,4,5-hexahydrobenzo[c]pyrrolo[3,4-e]azepin-6(10bH)-one hydrochloride] | 0.3 |  | > 10000 | inactive |  | > 120 |  |  |  |
| Cc1ccc(S(=O)(=O)N2Cc3cccnc3[C@@H]3CNC[C@H]3C2)cc1 (relative stereo) [Example 356, Trans-6-[(4-methylphenyl)sulfonyl]-5,6,7,7a,8,9,10,10a-octahydropyrido[3,2-c]pyrrolo[3,4-e]azepine] |  |  |  |  |  | 90 | 40 | 1000 | 15 |

Further lines, with some results ahead:

| EC50 (5HT2C receptors; [1]) [nM] | Emax (5HT2C receptors; read-out: Emax) [%] | EC50 (5HT2B receptors; [2]) [nM] | Emax (5HT2B receptors; [3]) | Emax (5HT2B receptors; CHO-K1, 5-HT2B, maximum functional response as percentage relative to the effect of serotonin, read-out: Emax) [%] | Structure (SMILES) | Emax (5HT2C receptors) [%] | EC50 (5HT2C receptors; EC50, 5-HT2C agonist activity) [nM] | EC50 (5HT2B receptors; EC50, 5-HT2B agonist activity) [nM] | Emax (5HT2B receptors; CHO-K1) [%] |
| --- | --- | --- | --- | --- | --- | --- | --- | --- | --- |
| 4 | 120 | > 10000 | inactive |  | C[C@@H](Cc1ccccc1)Oc1ccc2c(c1)C(=O)NC[C@@H]1CNC[C@@H]21 (mixture of isomers) [Example 149, Trans-8-((S)-1-phenylpropan-2-yloxy)-1,2,3,3a,4,5-hexahydrobenzo[e]pyrrolo[3,4-c]azepin-6(10bH)-one] |  |  |  |  |
|  | > 120 | > 10000 | inactive |  | CN1C[C@H]2CNC(=O)c3cc(-c4cccc(S(C)(=O)=O)c4)ccc3[C@@H]2C1 (relative stereo) [Example 84, Trans-2-methyl-8-(3-(methylsulfonyl)phenyl)-1,2,3,3a,4,5-hexahydrobenzo[e]pyrrolo[3,4-c]azepin-6(10bH)-one] |  |  |  |  |
| 600 | > 120 | > 10000 | inactive |  | Nc1ccc2c(c1)C(=O)NC[C@@H]1CN(Cc3ccccc3)C[C@@H]21 (relative stereo) [Example 141, Trans-8-amino-2-benzyl-1,2,3,3a,4,5-hexahydrobenzo[e]pyrrolo[3,4-c]azepin-6(10bH)-one] |  |  |  |  |
| 400 | > 120 | > 10000 | inactive |  | O=C1NC[C@@H]2CN(Cc3ccccc3)C[C@H]2c2sccc21 (relative stereo) [Example 101, Trans-8-benzyl-6,6a,7,8,9,9a-hexahydropyrrolo[3,4-e]thieno[3,2-c]azepin-4(5H)-one] |  |  |  |  |
| 2 | 100 | > 10000 | inactive |  | C[C@@H](O)c1cccc(-c2ccc3c(c2)C(=O)NC[C@H]2CN(C)C[C@H]32)c1 [Example 249, (3aS,10bS)-8-(3-((R)-1-Hydroxyethyl)phenyl)-2-methyl-1,2,3,3a,4,5-hexahydrobenzo[e]pyrrolo[3,4-c]azepin-6(10bH)-one] |  |  |  |  |
| 6 | 90 | > 10000 | inactive |  | COc1ccc(-c2ccc3c(c2)C(=O)NC[C@H]2CN(C)C[C@H]32)cc1Cl [Example 319, (3aS,10bS)-8-(3-Chloro-4-methoxyphenyl)-2-methyl-2,3,3a,4,5,10b-hexahydropyrrolo[3,4-d][2]benzazepin-6(1H)-one] |  |  |  |  |
